# Measurements as given in ChEMBL document CHEMBL3885881, “DrugMatrix”.
# Species on record: Rattus norvegicus
# Test: DrugMatrix - Regimen: Daily Repeat
# Assay type: toxicity, organism-based, Sprague-Dawley
# Set-up: regimen Daily Repeat, gender Male, age 6-8 weeks
# Conditions: in vivo, sc, route subcutaneous, […]; for ABSOLUTE BASOPHIL / ABSOLUTE EOSINOPHIL / ABSOLUTE LYMPHOCYTE / ABSOLUTE MONOCYTE / ABSOLUTE SEGMENTED NEUTROPHIL / BASOPHIL / EOSINOPHIL / ERYTHROCYTE COUNT / HEMATOCRIT / HEMOGLOBIN / LEUKOCYTE COUNT / LYMPHOCYTE / MEAN CORPUSCULAR HEMOGLOBIN / MEAN CORPUSCULAR HEMOGLOBIN CONCENTRATION / MEAN CORPUSCULAR VOLUME / MONOCYTE / NEUTROPHIL / NUCLEATED RED BLOOD CELLS / PLATELET COUNT: tissue Blood; for ALANINE AMINOTRANSFERASE / ALBUMIN / ALKALINE PHOSPHATASE / ASPARTATE AMINOTRANSFERASE / BLOOD UREA NITROGEN / CARBON DIOXIDE / CHLORIDE / CHOLESTEROL / CREATINE PHOSPHOKINASE / CREATININE / GLUCOSE / LACTATE DEHYDROGENASE / LIPASE / PHOSPHORUS / POTASSIUM / SODIUM / TOTAL BILIRUBIN / TOTAL PROTEIN / URIC ACID: tissue Plasma
# [1] = 0 mg/kg, 72 h, dose level Control, time 3 day
# [2] = 0 mg/kg, 120 h, dose level Control, time 5 day
# [3] = 150 mg/kg, 72 h, dose level High, time 3 day
smiles,measurement,setting,value
CN(Cc1ccc(C(C)(C)C)cc1)Cc1cccc2ccccc12 [BUTENAFINE],ABSOLUTE BASOPHIL,[1],0 CELLS/uL
same,ABSOLUTE EOSINOPHIL,[1],0 CELLS/uL
same,ABSOLUTE LYMPHOCYTE,[1],10887 CELLS/uL
same,ABSOLUTE MONOCYTE,[1],56 CELLS/uL
same,ABSOLUTE SEGMENTED NEUTROPHIL,[1],1057 CELLS/uL
same,BASOPHIL,[1],0%
same,EOSINOPHIL,[1],0%
same,ERYTHROCYTE COUNT,[1],5.31 x10E6/uL
same,HEMATOCRIT,[1],33.78%
same,HEMOGLOBIN,[1],13.4 G/DL
same,LEUKOCYTE COUNT,[1],12 x10E3/uL
same,LYMPHOCYTE,[1],91.17%
same,MEAN CORPUSCULAR HEMOGLOBIN,[1],25.25 pg
same,MEAN CORPUSCULAR HEMOGLOBIN CONCENTRATION,[1],39.65 G/DL
same,MEAN CORPUSCULAR VOLUME,[1],63.65 fL
same,MONOCYTE,[1],0.5%
same,NEUTROPHIL,[1],8.33%
same,NUCLEATED RED BLOOD CELLS,[1],0 /100WBC
same,PLATELET COUNT,[1],1142 x10E3/uL
same,ALANINE AMINOTRANSFERASE,[1],57.17 u/L
same,ALBUMIN,[1],4.28 G/DL
same,ALKALINE PHOSPHATASE,[1],425.83 u/L
same,ASPARTATE AMINOTRANSFERASE,[1],93.83 u/L
same,BLOOD UREA NITROGEN,[1],14.17 mg/dL
same,CARBON DIOXIDE,[1],33.5 mmol/L
same,CHLORIDE,[1],100 MEQ/L
same,CHOLESTEROL,[1],70.33 mg/dL
same,CREATINE PHOSPHOKINASE,[1],438.67 u/L
same,CREATININE,[1],0.19 mg/dL
same,GLUCOSE,[1],138.5 mg/dL
same,LACTATE DEHYDROGENASE,[1],190.17 u/L
same,LIPASE,[1],9.83 u/L
same,PHOSPHORUS,[1],11.05 mg/dL
same,POTASSIUM,[1],6.59 MEQ/L
same,SODIUM,[1],143.58 MEQ/L
same,TOTAL BILIRUBIN,[1],0.22 mg/dL
same,TOTAL PROTEIN,[1],6.15 G/DL
same,URIC ACID,[1],1.3 mg/dL
same,ABSOLUTE BASOPHIL,[2],0 CELLS/uL
same,ABSOLUTE EOSINOPHIL,[2],91.17 CELLS/uL
same,ABSOLUTE LYMPHOCYTE,[2],11847.67 CELLS/uL
same,ABSOLUTE MONOCYTE,[2],172.83 CELLS/uL
same,ABSOLUTE SEGMENTED NEUTROPHIL,[2],1105 CELLS/uL
same,BASOPHIL,[2],0%
same,EOSINOPHIL,[2],0.67%
same,ERYTHROCYTE COUNT,[2],5.35 x10E6/uL
same,HEMATOCRIT,[2],33.65%
same,HEMOGLOBIN,[2],13.42 G/DL
same,LEUKOCYTE COUNT,[2],13.22 x10E3/uL
same,LYMPHOCYTE,[2],89.83%
same,MEAN CORPUSCULAR HEMOGLOBIN,[2],25.12 pg
same,MEAN CORPUSCULAR HEMOGLOBIN CONCENTRATION,[2],39.9 G/DL
same,MEAN CORPUSCULAR VOLUME,[2],63 fL
same,MONOCYTE,[2],1.33%
same,NEUTROPHIL,[2],8.17%
same,NUCLEATED RED BLOOD CELLS,[2],0 /100WBC
same,PLATELET COUNT,[2],1347.83 x10E3/uL
same,ALANINE AMINOTRANSFERASE,[2],50 u/L
same,ALBUMIN,[2],4.1 G/DL
same,ALKALINE PHOSPHATASE,[2],329.17 u/L
same,ASPARTATE AMINOTRANSFERASE,[2],77.17 u/L
same,BLOOD UREA NITROGEN,[2],16.83 mg/dL
same,CARBON DIOXIDE,[2],34.83 mmol/L
same,CHLORIDE,[2],99.83 MEQ/L
same,CHOLESTEROL,[2],75.67 mg/dL
same,CREATINE PHOSPHOKINASE,[2],295.83 u/L
same,CREATININE,[2],0.18 mg/dL
same,GLUCOSE,[2],156.33 mg/dL
same,LACTATE DEHYDROGENASE,[2],166.83 u/L
same,LIPASE,[2],9.83 u/L
same,PHOSPHORUS,[2],12.18 mg/dL
same,POTASSIUM,[2],6.69 MEQ/L
same,SODIUM,[2],143.97 MEQ/L
same,TOTAL BILIRUBIN,[2],0.22 mg/dL
same,TOTAL PROTEIN,[2],6.05 G/DL
same,URIC ACID,[2],1.6 mg/dL
same,ABSOLUTE BASOPHIL,[3],0 CELLS/uL
same,ABSOLUTE EOSINOPHIL,[3],0 CELLS/uL
same,ABSOLUTE LYMPHOCYTE,[3],11405 CELLS/uL
same,ABSOLUTE MONOCYTE,[3],88.33 CELLS/uL
same,ABSOLUTE SEGMENTED NEUTROPHIL,[3],1473.33 CELLS/uL
same,BASOPHIL,[3],0%
same,EOSINOPHIL,[3],0%
same,ERYTHROCYTE COUNT,[3],5.31 x10E6/uL
same,HEMATOCRIT,[3],33.8%
same,HEMOGLOBIN,[3],13.6 G/DL
same,LEUKOCYTE COUNT,[3],12.97 x10E3/uL
same,LYMPHOCYTE,[3],88%
same,MEAN CORPUSCULAR HEMOGLOBIN,[3],25.63 pg
same,MEAN CORPUSCULAR HEMOGLOBIN CONCENTRATION,[3],40.27 G/DL
same,MEAN CORPUSCULAR VOLUME,[3],63.67 fL
same,MONOCYTE,[3],0.67%
same,NEUTROPHIL,[3],11.33%
same,NUCLEATED RED BLOOD CELLS,[3],0 /100WBC
same,PLATELET COUNT,[3],1396 x10E3/uL
same,ALANINE AMINOTRANSFERASE,[3],55 u/L
same,ALBUMIN,[3],3.97 G/DL
same,ALKALINE PHOSPHATASE,[3],429.67 u/L
same,ASPARTATE AMINOTRANSFERASE,[3],77.33 u/L
same,BLOOD UREA NITROGEN,[3],15.67 mg/dL
same,CARBON DIOXIDE,[3],31.67 mmol/L
same,CHLORIDE,[3],101.67 MEQ/L
same,CHOLESTEROL,[3],73 mg/dL
same,CREATINE PHOSPHOKINASE,[3],247 u/L
same,CREATININE,[3],0.17 mg/dL
same,GLUCOSE,[3],147.33 mg/dL
same,LACTATE DEHYDROGENASE,[3],229.67 u/L
same,LIPASE,[3],9 u/L
same,PHOSPHORUS,[3],13.73 mg/dL
same,POTASSIUM,[3],6.88 MEQ/L
same,SODIUM,[3],145.7 MEQ/L
same,TOTAL BILIRUBIN,[3],0.2 mg/dL
same,TOTAL PROTEIN,[3],5.73 G/DL
same,URIC ACID,[3],1.4 mg/dL
